Data from ChEMBL document CHEMBL5321275, “Discovery, Optimization, and Evaluation of Novel N-(Benzimidazol-5-yl)-1,3,4-thiadiazol-2-amine Analogues as Potent STAT3 Inhibitors for Cancer Treatment” (J Med Chem, 2023).
Converted amounts (≈) assume the structure as drawn.

Columns and labels:
[1] = Inhibition of IL-6/JAK/STAT3 signalling pathway in HEK-Blue IL-6 cells incubated for 16 hrs by QUANTI-blue assay; assay type: cell-based; details: Homo sapiens, HEK-Blue IL-6, 16 h
DU-145 [2] = assay: Antiproliferative activity against human DU-145 cells assessed as inhibition of cell growth at 10 uM measured after 96 hrs by MTT assay relative to control; assay type: functional
DU-145 [3] = assay: Antiproliferative activity against human DU-145 cells assessed as inhibition of cell growth measured after 96 hrs by MTT assay; assay type: functional, cell-based; details: DU-145, 96 h
[4] = Solubility of compound in water incubated for 10 mins; assay type: physicochemical
[5] = Metabolic stability in human liver microsomes at 10 uM measured after 120 mins in presence of NADPH-GS by HPLC-MS/MS analysis; assay type: ADME, Microsome; details: read-out: Stability
MDA-MB-231 [6] = assay: Antiproliferative activity against human MDA-MB-231 cells assessed as inhibition of cell growth measured after 96 hrs by MTT assay; assay type: functional, cell-based; details: MDA-MB-231, 96 h
MDA-MB-231 [7] = assay: Antiproliferative activity against human MDA-MB-231 cells assessed as inhibition of cell growth at 10 uM measured after 96 hrs by MTT assay relative to control; assay type: functional
HEK-Blue IL-6 = assay: Inhibition of IL-6/JAK/STAT3 signalling pathway in HEK-Blue IL-6 cells at 10 uM incubated for 16 hrs by QUANTI-blue assay relative to control; assay type: cell-based; details: Homo sapiens
[8] = Metabolic stability in mouse liver microsomes assessed as intrinsic clearance in presence of NADPH/UDPGA; assay type: ADME, Microsome; details: read-out: CLH
[9] = Metabolic stability in mouse liver microsomes assessed as half life in presence of NADPH/UDPGA; assay type: ADME, Microsome

| IC50 [1] | IC50 (DU-145 [3]) | solubility at 10 min [4] | remaining at 2 h, 10 µM [5] | IC50 (MDA-MB-231 [6]) | microsomal CLint [8] | half-life [9] | Structure (SMILES) | inhibition at 10 µM (DU-145 [2]) | inhibition at 10 µM (MDA-MB-231 [7]) | inhibition (HEK-Blue IL-6) |
| --- | --- | --- | --- | --- | --- | --- | --- | --- | --- | --- |
| 4510 nM | 1050 nM | 5.95 µg/mL (≈ 9.66 µM) | 32.5% | 820 nM | – | – | COc1cc(-c2nnc(Nc3cc4nc(-c5ccc(F)cc5)n(C5CC5)c4cc3N3CCN(C)CC3)s2)cc(OC)c1OC | 87.3% | 92.5% | 95.7% |
| – | – | – | – | – | 902 µL/min/mg | 1.54 min | O=c1ccc2ccc(O)cc2o1 [UMBELLIFERONE] | – | – | – |
| 2380 nM | 4420 nM | – | 25% | 800 nM | – | – | CCCn1c(-c2ccc(F)cc2)nc2cc(Nc3nnc(-c4cc(OC)c(OC)c(OC)c4)s3)c(N3CCN(C)CC3)cc21 | 80.7% | 94.5% | 108% |
| 4010 nM | 2170 nM | – | – | 960 nM | – | – | CN1CCN(c2cc3c(cc2Nc2nnc(-c4cccc(C#N)c4)s2)nc(-c2ccc(F)cc2)n3C2CC2)CC1 | 85.9% | 92.7% | 83.7% |
